# In article PMC12390684 (Viruses, 2025):
# Biological target: IN-GCN2 interaction (6xHis-IN / GST-GCN2) (UniProt P04585+Q9P2K8)
# Assay: biochemical
# Type: binding, HIV-1 IN; human GCN2
# Settings: screen, 100 µM; inactive = within 10% of the DMSO control
# Chain of IN-GCN2 interaction (6xHis-IN / GST-GCN2) (Q9P2K8 192-1024, other chains not shown): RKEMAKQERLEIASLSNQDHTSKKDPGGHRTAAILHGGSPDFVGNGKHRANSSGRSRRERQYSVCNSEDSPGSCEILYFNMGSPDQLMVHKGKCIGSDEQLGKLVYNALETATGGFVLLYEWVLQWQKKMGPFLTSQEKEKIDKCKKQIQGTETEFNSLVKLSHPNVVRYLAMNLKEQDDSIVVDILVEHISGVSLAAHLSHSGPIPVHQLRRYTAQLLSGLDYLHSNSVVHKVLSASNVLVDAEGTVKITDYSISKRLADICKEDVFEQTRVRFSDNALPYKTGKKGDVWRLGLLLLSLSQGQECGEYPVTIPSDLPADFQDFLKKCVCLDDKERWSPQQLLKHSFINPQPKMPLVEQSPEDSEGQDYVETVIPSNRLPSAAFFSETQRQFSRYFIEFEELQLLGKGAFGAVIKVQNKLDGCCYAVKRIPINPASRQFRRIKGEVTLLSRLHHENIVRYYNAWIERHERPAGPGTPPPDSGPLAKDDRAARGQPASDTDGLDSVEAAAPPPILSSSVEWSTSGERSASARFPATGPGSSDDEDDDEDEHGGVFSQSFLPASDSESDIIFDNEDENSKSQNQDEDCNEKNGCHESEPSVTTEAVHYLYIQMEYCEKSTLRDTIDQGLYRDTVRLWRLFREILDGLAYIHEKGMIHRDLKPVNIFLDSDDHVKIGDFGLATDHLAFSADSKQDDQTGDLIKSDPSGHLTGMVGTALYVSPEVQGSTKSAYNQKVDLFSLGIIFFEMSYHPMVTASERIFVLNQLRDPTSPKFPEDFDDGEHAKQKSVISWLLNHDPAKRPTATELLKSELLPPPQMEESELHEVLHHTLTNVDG
row,SMILES,"effect on IN-GCN2 interaction in the screen, in words"
1,COc1ccc2c(c1OC)CN1CCc3cc4c(cc3C1C2)OCO4 (stereo not shown) [NSC36351],inactive

# Same assay, conditions: screen, single dose 100 µM, single replicate; residual AlphaLISA signal normalized to DMSO control
row,SMILES,IN-GCN2 interaction (%)
1,O=[N+]([O-])[O-].c1ccc2c(c1)[nH]c1c2cc[n+]2cc3c(cc12)CCCC3 [NSC21728],107.16
2,C=C1C(=O)O[C@H]2C[C@@]3(C)O[C@@H]3CC/C(C)=C/[C@@H](OC(C)=O)[C@H]12 [NSC22070],135.82
3,O=c1oc2cc(O)ccc2c2oc3cc(O)ccc3c12 [NSC22842],123.61
4,CCC(C)c1cnc(CC(C)C)c(=O)n1O (stereo not shown) [NSC22939],88.97
5,O=c1ccn([C@H]2C[C@H](O)[C@@H](CO)O2)c(=O)[nH]1 [NSC23615],82.13
6,COC1=CC(=O)OC(CCc2ccc3c(c2)OCO3)C1 (stereo not shown) [NSC23878],70.38
7,COc1cc([C@@H]2c3cc4c(c(O)c3C[C@H]3COC(=O)[C@@H]32)OCO4)cc(OC)c1OC [NSC24819],89.45
8,C/C(=C\CC1=C(O)c2ccccc2C(=O)C1=O)CO [NSC24872],132.67
9,O=C1C[C@@H]2OCC=C3C[N+]4([O-])CC[C@]56c7ccccc7N1[C@H]5[C@H]2[C@H]3C[C@@H]64 (stereo partly shown) [NSC24951],106.44
10,COC1[C@H](O)[C@@H](O)C(O)[C@H](O)[C@H]1O (stereo partly shown) [NSC26254],90.47
11,C=C(C)[C@H]1Cc2c(ccc3c2O[C@@H]2COc4cc(OC)c(OC)cc4[C@@H]2C3=O)O1 [NSC26258],55.12
12,O=P1(N(CCCl)CCCl)NCCCO1 (stereo not shown) [NSC26271],117.66
13,CC1(C)CCC2=C(O1)c1ccccc1C(=O)C2=O [NSC26326],107.59
14,CC1(C)CCC2=C(O1)C(=O)c1ccccc1C2=O [NSC26327],99.02
15,NC(=O)NCCC[C@H](N)C(=O)O [NSC27425],90.90
16,O=C([O-])c1nc(=O)[nH]c(=O)[nH]1.[K+] [NSC28841],85.56
17,COC(=O)C1C2CC3c4[nH]c5cc(OC)ccc5c4CCN3CC2CC(OC(=O)CCc2cc(OC)c(OC)c(OC)c2)C1OC (stereo not shown) [NSC29854],63.08
18,O=C(O)/C(O)=C(/O)C(=O)O [NSC30238],100.21
19,COc1c(O)cc2oc3cc(O)c(CC=C(C)C)c(O)c3c(=O)c2c1CC=C(C)C [NSC30552],60.59
20,C/C=C(/C)C(=O)O[C@H]1CCN2CC=C(COC(=O)[C@@](O)([C@H](C)OC)C(C)(C)O)[C@H]12 [NSC30625],106.60
21,COc1ccc([C@@H]2CC(=O)c3c(O)cc(O[C@@H]4O[C@H](CO[C@@H]5O[C@@H](C)[C@H](O)[C@@H](O)[C@H]5O)[C@@H](O)[C@H](O)[C@H]4O)cc3O2)cc1O [NSC31048],142.54
22,O=C1c2ccccc2C(=O)c2c1cc(O)c(O)c2O [NSC31754],87.55
23,CCCCCc1cc(O)cc2c1Oc1cc(O)cc(C(=O)CCCC)c1C(=O)O2 [NSC31867],101.08
24,CN1CCc2cc3c(cc2[C@H]1[C@@H]1OC(=O)c2c1ccc1c2OCO1)OCO3 [NSC32192],122.62
25,CC(=O)O[C@@]1(C)C[C@@H]([C@H](O)CC2CC(=O)NC(=O)C2)C(=O)[C@@H](C)C1 [NSC32743],79.33
26,CC[C@H]1CN2CCc3cc(OC)c(OC)cc3[C@@H]2C[C@@H]1C[C@H]1NCCc2cc(O)c(OC)cc21 [NSC32944],81.67

row,SMILES,IN-GCN2 interaction (%)
1,COc1ccc2c(c1O)-c1c(OC)c(OC)cc3c1[C@H](C2)N(C)CC3 [NSC32979],119.47
2,COc1cc(/C=C/C(=O)CC(=O)/C=C/c2ccc(O)c(OC)c2)ccc1O [NSC32982],15.01
3,COc1cc2c(cc1OC)C(=O)Cc1ccc3c(c1CN(C)CC2)OCO3 [NSC32984],91.01
4,COc1cc2c(c(OC)c1OC)-c1ccc(OC)c(=O)cc1[C@@H](NC(=O)c1ccccc1)CC2 [NSC33410],67.25
5,COC(=O)CC[C@@H](C)[C@H]1CC[C@@]2(C)[C@@H]3C(=O)C[C@H]4C(C)(C)[C@@H](OC(C)=O)CC[C@]4(C)[C@H]3C(=O)C[C@]12C [NSC34202],97.47
6,[O-][N+]12CCCCC1CCCC2CO (stereo not shown) [NSC34552],80.42
7,COc1c2c(c3c(c1OC)c(=O)c1ccccc1n3C)OCO2 [NSC34758],105.30
8,COc1ccc(CC2=NCCc3cc(OC)c(OC)cc32)cc1OC.O=C(O)C(=O)O [NSC35550],110.36
9,CC1CCC2C(C)C3C(CC4C5CC=C6CC(OC7OC(CO)C(O)C(OC8OC(CO)C(O)C(O)C8O)C7OC7OC(C)C(O)C(O)C7O)CCC6(C)C5CCC43C)N2C1.Cl (stereo not shown) [NSC35611],109.39
10,O=c1c(O)cccc2cc(O)c(O)c(O)c12 [NSC35676],61.12
11,COc1c2c(cc(O)c1C(C)=O)OC(C)(C)C=C2 [NSC36294],109.95
12,COc1ccc2c(c1OC)CN1CCc3cc4c(cc3C1C2)OCO4 (stereo not shown) [NSC36351],108.61
13,O=C1c2cc(O)c(O)cc2OC(c2ccc(O)c(O)c2)C1O (stereo not shown) [NSC36398],108.22
14,COc1cc([C@@H]2c3cc4c(cc3[C@H](O)[C@H]3COC(=O)[C@@H]23)OCO4)cc(OC)c1OC [NSC36407],109.04
15,CC1(C)O[C@H]2CC(=O)OC[C@]23[C@H]2CC[C@@]4(C)[C@H](c5ccoc5)OC(=O)[C@H]5O[C@]54[C@]2(C)C(=O)C[C@@H]13 [NSC36508],112.07
16,C[C@@H]1C[C@H]2OC(=O)[C@@]3(C)CCC[C@@](C)([C@@H]23)[C@@]1(O)CCc1ccoc1 [NSC36693],92.00
17,CCOC(=O)CCCCCCCCCCCCC1C=CCC1 (stereo not shown) [NSC38010],104.59
18,CO[C@@H]1[C@H](O)C[C@@H](O[C@H]2[C@@H](C)O[C@@H](Oc3cc(O)c4c(O)c5c(cc4c3)C[C@@H]([C@H](OC)C(=O)[C@@H](O)[C@@H](C)O)[C@H](O[C@H]3C[C@@H](O[C@H]4C[C@@H](O[C@H]6C[C@](C)(O)[C@@H](OC(=O)C(C)C)[C@H](C)O6)[C@H](O)[C@@H](C)O4)[C@H](O)[C@@H](C)O3)C5=O)C[C@H]2OC(C)=O)O[C@@H]1C [NSC38270],113.18
19,CC1=C2[C@H]3OC(=O)[C@@H](C)[C@@H]3CC[C@@]2(C)C=C/C1=N\O [NSC42038],112.40
20,CC(C)=CCc1ccc(O)c(=O)cc1C(C)C [NSC43339],101.87
21,CN1[C@@H]2CC[C@H]1CC(O)C2 (stereo partly shown) [NSC43871],99.50
22,O=P(O)(O)OC1OC(CO)C(O)C(O)C1O (stereo not shown) [NSC44138],105.48
23,O=C1C(O)=C(c2ccccc2)C(=O)C(O)=C1c1ccccc1 [NSC44175],117.13
24,COC1=C(N)C(=O)c2nc(-c3nc(C(=O)O)c(C)c(-c4ccc(OC)c(OC)c4O)c3N)ccc2C1=O [NSC45383],84.72
25,COC(=O)c1nc(-c2ccc3c(n2)C(=O)C(N)=C(OC)C3=O)c(N)c(-c2ccc(OC)c(OC)c2O)c1C [NSC45384],82.84
26,COc1c2occc2cc2ccc(=O)oc12 [NSC45923],121.17

# Same assay, conditions: screen, single dose 100 µM, single replicate; residual AlphaLISA signal normalized to DMSO control; listed as 36437
row,SMILES,IN-GCN2 interaction (%)
1,C=C1C(=O)OC2CC1C(OC(C)=O)C/C(C)=C/CC/C(C)=C\CCC2(C)O (stereo not shown) [NSC36437],73.91

# Same assay, conditions: screen, single dose 100 µM, single replicate; residual AlphaLISA signal normalized to DMSO control; listed as 43338
row,SMILES,IN-GCN2 interaction (%)
1,CC(C)c1ccc(O)c(=O)cc1 [NSC43338],100.42
